Laboratory results taken from patent publication US20180256673A1, “METHODS FOR TREATING FUNGAL INFECTIONS” (priority 2015, published 2018).
Converted amounts (≈) assume the structure as drawn. “And” between values parts separate entries of the source, which are not always exact repeats. Identical values can stand only once. Like-named read-outs stand apart in the source and are kept apart here. Starred links: 1 amine or outer side, 2 acyl side, 3 side chain; linkers in the order of their positions; H or OH if unused. Positions of bridges follow the written chain, without caps; N, C: chain ends. Non-standard residues stand in square brackets, D forms with d. Residues, ends and D or L forms follow the SMILES beside them. *: point of attachment. pTerphenylCO(4''-OnC5H11) = CCCCCOc1ccc(-c2ccc(-c3ccc(C(=O)*)cc3)cc2)cc1; Orn(4R-OH,5R-OH) = O=C([C@H](C[C@@H](O)[C@@H](O)N[*:3])N[*:1])[*:2]; hTyr(3S-OH,4S-OH) = N[C@H](C(=O)O)[C@H](O)[C@@H](O)c1ccc(O)cc1; Pro(3S-OH,4S-Me) = C[C@H]1CN[C@H](C(=O)O)[C@H]1O; Hyp = O=C(O)[C@@H]1C[C@@H](O)CN1

Legend:
C. albicans NRRL Y-477 [1] = assay: Broth microdilution MIC (CLSI), Examples 3 and 4; conditions: Candida albicans
Protocol: Antifungal susceptibility testing. […] MIC assays were performed in triplicate.

[2] = tested on: C. tropicalis vaginal isolates; assay: Susceptibility testing of VVC clinical isolates at pH 7 and 4 (CLSI M27-A3); type: cell-based; conditions: Candida tropicalis
[3] = tested on: C. glabrata ATCC 90030, ATCC 2001; assay: microbe, parasite or virus in culture; type: cell-based, Candida glabrata; conditions: for MIC fold-shift: WT to P20; for MIC: Nakaseomyces glabratus
Candida parapsilosis = assay: Broth microdilution of invasive fungal isolates (CLSI M27-A3/M38-A2); type: cell-based
Candida orthopsilosis = assay: as above; type: cell-based
C. parapsilosis CP02 [4] = type: cell-based, Candida parapsilosis
Protocol: (§1) Spontaneous mutant selection. […] Three individual colonies from each strain were used to start cultures in RPMI. […] One milliliter aliquots were spread onto SDA plates containing drug with sterile glass beads. Starting viable count was enumerated by triplicate plating of serial dilutions of the starting inoculum. […] Glycerol stocks of putative mutant colonies were stored at −80° C. […] Spontaneous mutation frequencies were calculated by dividing the number of resistant colonies on a given plate by the starting inoculum plated. A subset of mutants (weighted heavily towards those selected with CMP1) were then evaluated by MIC and sequencing of FKS gene hot spot regions.

[5] = tested on: C. glabrata vaginal isolates; assay: Susceptibility testing of VVC clinical isolates at pH 7 and 4 (CLSI M27-A3); type: cell-based, Candida glabrata; conditions: Nakaseomyces glabratus
Candida tropicalis = assay: Broth microdilution of invasive fungal isolates (CLSI M27-A3/M38-A2); type: cell-based
C. krusei ATCC 6258 = assay: microbe, parasite or virus in culture; type: cell-based, Candida krusei; conditions: for MIC: Pichia kudriavzevii
C. albicans NRRL Y-477 [6] = type: cell-based, Candida albicans
Protocol: as §1

Candida albicans = assay: Broth microdilution of invasive fungal isolates (CLSI M27-A3/M38-A2); type: cell-based
C. parapsilosis CP02 [7] = assay: Broth microdilution MIC (CLSI), Examples 3 and 4; conditions: Lodderomyces parapsilosis, CP02, 24 h, read-out: Broth MIC
Protocol: Antifungal susceptibility testing. Candida strains were cultured aerobically at 35° C. on SDA plates or in RPMI 1640 broth (pH 7.0). […] MIC assays were performed in triplicate.

[8] = SDA, minimum concentration to cleanly inhibit growth

CCCCCOc1ccc(-c2ccc(-c3ccc(C(=O)N[C@H]4C[C@@H](O)[C@@H](O)NC(=O)[C@@H]5[C@@H](O)[C@@H](C)CN5C(=O)[C@H]([C@@H](C)O)NC(=O)[C@H]([C@H](O)[C@@H](O)c5ccc(O)cc5)NC(=O)[C@@H]5C[C@@H](O)CN5C(=O)[C@H]([C@@H](C)O)NC4=O)cc3)cc2)cc1 [ANID, anidulafungin] ({pTerphenylCO(4''-OnC5H11)}-[Orn(4R-OH,5R-OH)]T[Hyp][hTyr(3S-OH,4S-OH)]T[Pro(3S-OH,4S-Me)]; lactam 1-C)
MIC (C. albicans NRRL Y-477 [1]; NRRLY477): 0.25 µg/mL (≈ 0.219 µM) | MIC (C. albicans NRRL Y-477 [1]; NRRLY477, 24 h, read-out: Broth MIC): 0.015 µg/mL (≈ 0.0132 µM) | MIC90 ([2]; 24 h, pH 4): 0.125 µg/mL (≈ 0.11 µM) | MIC90 ([2]; 24 h, pH 7): 0.03 µg/mL (≈ 0.0263 µM) | MIC90 ([2]; 48 h, pH 4): 0.5 µg/mL (≈ 0.438 µM) | MIC90 ([2]; 48 h, pH 7): 0.06 µg/mL (≈ 0.0526 µM) | MIC fold-shift ([3]; ATCC 2001): 64 | MIC fold-shift ([3]; ATCC 90030): 64 | MIC ([3]; 48 h, ATCC 90030 P20-1, selecting drug ANID, Fks2 HS1 D666I, 48 h read): 4 µg/mL (≈ 3.51 µM) | MIC ([3]; 48 h, ATCC 90030 P20-1, selecting drug CAS, Fks2 HS1 F659I D666Y, 48 h read): 8 µg/mL (≈ 7.02 µM) | MIC ([3]; ATCC 2001 P20-2, selecting drug ANID, Fks1 HS1 D632Y): 4 µg/mL (≈ 3.51 µM) | MIC ([3]; ATCC 2001 P20-2, selecting drug CAS): 2 µg/mL (≈ 1.75 µM) | MIC ([3]; ATCC 2001 P20-2, selecting drug CMP1): 1 µg/mL (≈ 0.877 µM) | MIC ([3]; ATCC 90030 P20-2, selecting drug CMP1): 1 µg/mL (≈ 0.877 µM) | MIC ([3]; read-out: MIC P20, ATCC 2001, total population after 20 passages with the selecting drug, MIC of selecting drug): 4 µg/mL | MIC ([3]; read-out: MIC P20, ATCC 90030, total population after 20 passages with the selecting drug, MIC of selecting drug): 4 µg/mL | Cumulative % of isolates inhibited at MIC 0.5 μg/mL (Candida parapsilosis; 92 isolates): (4.3) % | Cumulative % of isolates inhibited at MIC 1 μg/mL (Candida parapsilosis; 92 isolates): (34.8) % | Cumulative % of isolates inhibited at MIC 2 μg/mL (Candida parapsilosis; 92 isolates): (82.6) % | Cumulative % of isolates inhibited at MIC 4 μg/mL (Candida parapsilosis; 92 isolates): (100.0) % | Number of isolates inhibited at MIC 0.5 μg/mL (Candida parapsilosis; 92 isolates): 4 | Number of isolates inhibited at MIC 1 μg/mL (Candida parapsilosis; 92 isolates): 28 | Number of isolates inhibited at MIC 2 μg/mL (Candida parapsilosis; 92 isolates): 44 | Number of isolates inhibited at MIC 4 μg/mL (Candida parapsilosis; 92 isolates): 16 | MIC50 (Candida parapsilosis; Lodderomyces parapsilosis): 2 µg/mL (≈ 1.75 µM) | MIC90 (Candida parapsilosis; Lodderomyces parapsilosis): 4 µg/mL (≈ 3.51 µM) | Cumulative % of isolates inhibited at MIC 0.25 μg/mL (Candida orthopsilosis; 10 isolates): (30.0) % | Cumulative % of isolates inhibited at MIC 0.5 μg/mL (Candida orthopsilosis; 10 isolates): (50.0) % | Cumulative % of isolates inhibited at MIC 1 μg/mL (Candida orthopsilosis; 10 isolates): (90.0) % | Cumulative % of isolates inhibited at MIC 2 μg/mL (Candida orthopsilosis; 10 isolates): (100.0) % | Number of isolates inhibited at MIC 0.25 μg/mL (Candida orthopsilosis; 10 isolates): 3 | Number of isolates inhibited at MIC 0.5 μg/mL (Candida orthopsilosis; 10 isolates): 2 | Number of isolates inhibited at MIC 1 μg/mL (Candida orthopsilosis; 10 isolates): 4 | Number of isolates inhibited at MIC 2 μg/mL (Candida orthopsilosis; 10 isolates): 1 | MIC50 (Candida orthopsilosis; Lodderomyces orthopsilosis): 0.5 µg/mL (≈ 0.438 µM) | MIC90 (Candida orthopsilosis; Lodderomyces orthopsilosis): 1 µg/mL (≈ 0.877 µM) | Median mutation frequency (C. parapsilosis CP02 [4]): <1.04E−08 | Plate concentration (C. parapsilosis CP02 [4]; [8]): 16 µg/mL | Freq. (replicate mutation frequency) (C. parapsilosis CP02 [4]; replicate plates 1-3): <1.04E−08 (2×) and <9.62E−09 | MIC90 ([5]; 24 h, pH 4): 0.125 µg/mL (≈ 0.11 µM) | MIC90 ([5]; 24 h, pH 7): 0.03 µg/mL (≈ 0.0263 µM) | MIC90 ([5]; 48 h, pH 4): 0.25 µg/mL (≈ 0.219 µM) | MIC90 ([5]; 48 h, pH 7): 0.06 µg/mL (≈ 0.0526 µM) | Cumulative % of isolates inhibited at MIC 0.015 μg/mL (Candida tropicalis; 51 isolates): (62.7) % | Cumulative % of isolates inhibited at MIC 0.03 μg/mL (Candida tropicalis; 51 isolates): (98.0) % | Cumulative % of isolates inhibited at MIC 0.06 μg/mL (Candida tropicalis; 51 isolates): (100.0) % | Cumulative % of isolates inhibited at MIC ≤0.008 μg/mL (Candida tropicalis; 51 isolates): (9.8) % | Number of isolates inhibited at MIC 0.015 μg/mL (Candida tropicalis; 51 isolates): 27 | Number of isolates inhibited at MIC 0.03 μg/mL (Candida tropicalis; 51 isolates): 18 | Number of isolates inhibited at MIC 0.06 μg/mL (Candida tropicalis; 51 isolates): 1 | Number of isolates inhibited at MIC ≤0.008 μg/mL (Candida tropicalis; 51 isolates): 5 | MIC50 (Candida tropicalis; Candida tropicalis): 0.015 µg/mL (≈ 0.0132 µM) | MIC90 (Candida tropicalis; Candida tropicalis): 0.03 µg/mL (≈ 0.0263 µM) | MIC fold-shift (C. krusei ATCC 6258; ATCC 6258, WT to P20): 2 | MIC (C. krusei ATCC 6258; ATCC6258): 0.125 µg/mL (≈ 0.11 µM) | MIC (C. krusei ATCC 6258; ATCC6258, read-out: MIC P20): 0.125 µg/mL (≈ 0.11 µM) | Median mutation frequency (C. albicans NRRL Y-477 [6]): 1.59E−07 | Plate concentration (C. albicans NRRL Y-477 [6]; [8]): 0.015 µg/mL | Freq. (replicate mutation frequency) (C. albicans NRRL Y-477 [6]; replicate plates 1-3): 1.88E−07 and 1.59E−07 and 1.56E−07 | Cumulative % of isolates inhibited at MIC 0.015 μg/mL (Candida albicans; 251 isolates): (67.7) % | Cumulative % of isolates inhibited at MIC 0.03 μg/mL (Candida albicans; 251 isolates): (89.2) % | Cumulative % of isolates inhibited at MIC 0.06 μg/mL (Candida albicans; 251 isolates): (98.0) % | Cumulative % of isolates inhibited at MIC 0.12 μg/mL (Candida albicans; 251 isolates): (100.0) % | Cumulative % of isolates inhibited at MIC ≤0.008 μg/mL (Candida albicans; 251 isolates): (27.5) % | Number of isolates inhibited at MIC 0.015 μg/mL (Candida albicans; 251 isolates): 101 | Number of isolates inhibited at MIC 0.03 μg/mL (Candida albicans; 251 isolates): 54 | Number of isolates inhibited at MIC 0.06 μg/mL (Candida albicans; 251 isolates): 22 | Number of isolates inhibited at MIC 0.12 μg/mL (Candida albicans; 251 isolates): 5 | Number of isolates inhibited at MIC ≤0.008 μg/mL (Candida albicans; 251 isolates): 69 | MIC50 (Candida albicans; Candida albicans): 0.015 µg/mL (≈ 0.0132 µM) | MIC90 (Candida albicans; Candida albicans): 0.06 µg/mL (≈ 0.0526 µM) | MIC (C. parapsilosis CP02 [7]): 4 µg/mL (≈ 3.51 µM)
